We go through ten compounds from EP1977646A1, “Insecticidal hydroxyethyl thlourea derivatives” (Bayer CropScience AG, priority 2007, dated 2008).

The nature of data set [1]: logP (HCOOH) by HPLC, EEC-Directive 79/831, Annex V.A8. Conditions: gradient method; for chromatographic logP: hplc acetonitrile/0.1% hcooh. The data set is classed as physicochemical. How it is done:
A stirred mixture of 600 mg (3,4 mmol) 4-fluoro-1-aminoindane and 778 mg (4.37 mmol) 1,1-thiocarbonyldiimidazole in dichloromethane was kept at ambient temperature for 1,5 h. After addition of 230 mg (3.74 mmol) 2-aminoethanol dissolved in 3 mL dichloromethane the resulting mixture was stirred for further 72 h at ambient temperature. Then, the mixture was diluted with ethyl acetate and washed with 1 N HCl and saturated NaHCO3 solution. After phase separation, the organic phase was dried with solid Na2SO4, filtered and evaporated under reduced pressure. The residue was purified by chromatography (silica gel, cyclohexane/ethyl acetate = vol. 5:1) to afford 350 mg 1-(4-fluoro-2,3-dihydro-1H-inden-1-yl)-3-(2-hydroxyethyl)thiourea. The NMR spectrum was consistent with the proposed structure. logP^(1)) = 1,74 [formula] ^1) logP (HCOOH) determined according to EEC-Directive 79/831, Annex V.A8 using HPLC (gradient method, acetonitrile/0.1% HCOOH)
logP (HCOOH) determined according to EEC-Directive 79/831, Annex V.A8 using HPLC (gradient method, acetonitrile/0.1% HCOOH)

The test system of data set [2] is Myzus persicae. The data set can be described thus: Myzus persicae - test (spray application). The data set is classed as in vivo. Conditions: application rate of 500 g/ha, Chinese cabbage leaf-disks sprayed, all instars. How it is done: Myzus persicae - test; (spray application)
(§1) To produce a suitable preparation of active compound, 1 part by weight of active compound is mixed with the stated amount of solvent and emulsifier, and the concentrate is diluted with emulsifier-containing water to the desired concentration.
Chinese cabbage (Brassica pekinesis) leaf-disks infected with all instars of the green peach aphid (Myzus persicae), are sprayed with a preparation of the active ingredient at the desired concentration.
After the specified period of time, mortality in % is determined. 100% means that all aphids have been killed; 0% means that none of the aphids have been killed.

The subject of data set [3] is Tetranychus urticae. The data set can be described thus: Tetranychus urticae - test; OP-resistant (spray application). Conditions: in Phaseolus vulgaris, read-out: activity (mortality in %). In kind it is in vivo. How it is done: Tetranychus urticae - test; OP-resistant (spray application)
as §1
French bean (Phaseolus vulgaris) which are heavily infested with all stages of the two spotted spidermite (Tetranychus urticae), are sprayed with a preparation of the active ingredient at the desired concentration.
After the specified period of time, mortality in % is determined. 100% means that all spider mites have been killed and 0% means that none of the spider mites have been killed.

Data set [4] has as its system Aphis gossypii. Put plainly: Aphis gossypii - test (leaf dip). The data set is classed as in vivo. Conditions: foliar, application rate of 20 ppm, cotton leaves dipped. How it is done: Aphis gossypii - test [table] To produce a suitable preparation of active compound, 1 part by weight of active compound is mixed with the stated amount of solvent and emulsifier, and the concentrate is diluted with emulsifier-containing water to the desired concentration. Cotton leaves (Gossypium hirsutum) which are heavily infested by the cotton aphid (Aphis gossypii) are treated by being dipped into the preparation of the active compound of the desired concentration. After the specified period of time, the mortality in % is determined. 100 % means that all the aphids have been killed; 0 % means that none of the aphids have been killed.

Data set [5] relates to Myzus persicae. The data set can be described thus: Myzus persicae - test (drench). The data set is classed as in vivo. Conditions: soil, application rate of 20 ppm, cabbage plants drenched. How it is done:
as §1
Cabbage plants (Brassica oleracea) which are heavily infested by the green peach aphid (Myzus persicae) are treated by being drenched with the preparation of the active compound of the desired concentration.
After the specified period of time, mortality in % is determined. 100 % means that all the aphids have been killed; 0 % means that none of the aphids have been killed.

Data set [6] deals with Myzus persicae. Put plainly: Myzus-Test; oral (spray application). In kind it is in vivo. How it is done: Myzus-Test; oral (spray application)
To produce a suitable preparation of active compound, 1 part by weight of active compound ist mixed with the stated amount of solvent and emulsifier, and the concentrate is diluted with emulsifier-containing water to the desired concentration.
Containers are infested with a mixed population of the green peach aphid (Myzus persicae), the aphids suck on a preparation of the active compound at the desired concentration.
After the specified period of time, mortality in % is determined. 100 % means that all aphids have been killed; 0 % means that none of the aphids have been killed.

Where [7] appears, read: application rate of 100 ppm, aphids suck on preparation, mixed population.

Read-outs that look alike come from different tables or passages of the source.

As to `OCCNC(=S)N[C@H]1CCc2ccccc21` [1-2, 1-[(1S)-2,3-dihydro-1H-inden-1-yl]-3-(2-hydroxyethyl)thiourea], the “logP (HCOOH)” value in data set [1] (acetonitrile/0.1% HCOOH) is reported as 1,56. This compound registered a chromatographic logP in data set [1] of 1.65. The compound also registered a mortality at 500 g/ha in data set [2] of at least 80%. For the same compound, in data set [3], the mortality at 100 g/ha was at least 80%. Moreover, the mortality at 20 ppm in data set [4] and in data set [5] was at least 80% in each case. Moreover, the mortality at 100 ppm in data set [6] (setting [7]) was at least 80%.

In data set [1], `OCCNC(=S)N[C@@H]1CCc2ccccc21` [1-3] displayed a chromatographic logP of 1.65.

Compound `COCCNC(=S)NC1CCc2ccccc21` (stereo not shown) [1-4, 1-(2,3-dihydro-1H-inden-1-yl)-3-(2-methoxyethyl)thiourea] came in with a chromatographic logP in data set [1] of 2.07. In data set [2], the mortality at 500 g/ha is at least 80%. In data set [6] (setting [7]), the mortality at 100 ppm was at least 80%.

In data set [1], `OCCNC(=S)NC1CCc2c(F)cccc21` (stereo not shown) [1-14, 1-(4-fluoro-2,3-dihydro-1H-inden-1-yl)-3-(2-hydroxyethyl)thiourea] displayed a chromatographic logP of 1.74. Moreover, in data set [2], the mortality at 500 g/ha is at least 80%. The compound further had a mortality at 20 ppm in data set [4] of at least 80%.

Regarding `COCCNC(=S)NC1CCc2c(F)cccc21` (stereo not shown) [1-17], the chromatographic logP in data set [1] is 2.21. The compound further had a mortality at 500 g/ha in data set [2] of at least 80%. The compound further yielded a mortality at 100 ppm in data set [6] of at least 80%.

Compound `CC(CO)NC(=S)N[C@H]1CCc2ccccc21` (stereo partly shown) [1-21] showed a chromatographic logP in data set [1] of 1.78.

Consider `OCCNC(=S)NC1CCc2c(F)ccc(F)c21` (stereo not shown) [1-83], for which, in data set [1], the chromatographic logP was found to be 1.68.

As to `OCCN(CCO)C(=S)N[C@H]1CCc2ccccc21` [1-105], the chromatographic logP in data set [1] is 1.64.

On to `OCCNC(=S)NC1CCOc2ccccc21` (stereo not shown) [3-1], for which the chromatographic logP in data set [1] worked out at 1.42. The mortality at 500 g/ha in data set [2] was at least 80%.

In data set [1], `OCCNC(=S)N[C@H]1CCCc2ccccc21` [4-2] returned a chromatographic logP of 1.79. The mortality at 500 g/ha in data set [2] was at least 80%. Also, the mortality at 20 ppm in data set [4] was at least 80%.

Usually chromatographic logP stands for a lipophilicity value derived from retention on a column. A higher chromatographic logP goes with higher lipophilicity. One may read the mortality as the share of the test organisms that died.
